Measurements: patent EP3263567A1, “CARBOXAMIDE-SUBSTITUTED PYRAZOLES AND TRI(HETERO)ARYL-PYRAZOLES FOR USE IN METHODS OF TREATING AND / OR PREVENTING CARDIOVASCULAR DISEASES AND / OR COMORBIDITIES THEREOF” (AiCuris Anti-infective Cures GmbH, priority 2016, dated 2018)
Entries after “also recorded” stand apart in the source; their conditions may differ.

What was measured:
Cav1.2 = biological target: T1, Cav1.2 (Homo sapiens, UniProt Q13936); experiment: Whole-cell patch-clamp, Cav1.2 currents in stably transfected CHO cells; assay type: cell-based; conditions: summary statement
T1 construct: expressed in transfected cells; host or cells: CHO (ATCC CCL-61), stably transfected; selection with Hygromycin, Geneticin and Zeocin
T1 sequence (Q13936 whole entry): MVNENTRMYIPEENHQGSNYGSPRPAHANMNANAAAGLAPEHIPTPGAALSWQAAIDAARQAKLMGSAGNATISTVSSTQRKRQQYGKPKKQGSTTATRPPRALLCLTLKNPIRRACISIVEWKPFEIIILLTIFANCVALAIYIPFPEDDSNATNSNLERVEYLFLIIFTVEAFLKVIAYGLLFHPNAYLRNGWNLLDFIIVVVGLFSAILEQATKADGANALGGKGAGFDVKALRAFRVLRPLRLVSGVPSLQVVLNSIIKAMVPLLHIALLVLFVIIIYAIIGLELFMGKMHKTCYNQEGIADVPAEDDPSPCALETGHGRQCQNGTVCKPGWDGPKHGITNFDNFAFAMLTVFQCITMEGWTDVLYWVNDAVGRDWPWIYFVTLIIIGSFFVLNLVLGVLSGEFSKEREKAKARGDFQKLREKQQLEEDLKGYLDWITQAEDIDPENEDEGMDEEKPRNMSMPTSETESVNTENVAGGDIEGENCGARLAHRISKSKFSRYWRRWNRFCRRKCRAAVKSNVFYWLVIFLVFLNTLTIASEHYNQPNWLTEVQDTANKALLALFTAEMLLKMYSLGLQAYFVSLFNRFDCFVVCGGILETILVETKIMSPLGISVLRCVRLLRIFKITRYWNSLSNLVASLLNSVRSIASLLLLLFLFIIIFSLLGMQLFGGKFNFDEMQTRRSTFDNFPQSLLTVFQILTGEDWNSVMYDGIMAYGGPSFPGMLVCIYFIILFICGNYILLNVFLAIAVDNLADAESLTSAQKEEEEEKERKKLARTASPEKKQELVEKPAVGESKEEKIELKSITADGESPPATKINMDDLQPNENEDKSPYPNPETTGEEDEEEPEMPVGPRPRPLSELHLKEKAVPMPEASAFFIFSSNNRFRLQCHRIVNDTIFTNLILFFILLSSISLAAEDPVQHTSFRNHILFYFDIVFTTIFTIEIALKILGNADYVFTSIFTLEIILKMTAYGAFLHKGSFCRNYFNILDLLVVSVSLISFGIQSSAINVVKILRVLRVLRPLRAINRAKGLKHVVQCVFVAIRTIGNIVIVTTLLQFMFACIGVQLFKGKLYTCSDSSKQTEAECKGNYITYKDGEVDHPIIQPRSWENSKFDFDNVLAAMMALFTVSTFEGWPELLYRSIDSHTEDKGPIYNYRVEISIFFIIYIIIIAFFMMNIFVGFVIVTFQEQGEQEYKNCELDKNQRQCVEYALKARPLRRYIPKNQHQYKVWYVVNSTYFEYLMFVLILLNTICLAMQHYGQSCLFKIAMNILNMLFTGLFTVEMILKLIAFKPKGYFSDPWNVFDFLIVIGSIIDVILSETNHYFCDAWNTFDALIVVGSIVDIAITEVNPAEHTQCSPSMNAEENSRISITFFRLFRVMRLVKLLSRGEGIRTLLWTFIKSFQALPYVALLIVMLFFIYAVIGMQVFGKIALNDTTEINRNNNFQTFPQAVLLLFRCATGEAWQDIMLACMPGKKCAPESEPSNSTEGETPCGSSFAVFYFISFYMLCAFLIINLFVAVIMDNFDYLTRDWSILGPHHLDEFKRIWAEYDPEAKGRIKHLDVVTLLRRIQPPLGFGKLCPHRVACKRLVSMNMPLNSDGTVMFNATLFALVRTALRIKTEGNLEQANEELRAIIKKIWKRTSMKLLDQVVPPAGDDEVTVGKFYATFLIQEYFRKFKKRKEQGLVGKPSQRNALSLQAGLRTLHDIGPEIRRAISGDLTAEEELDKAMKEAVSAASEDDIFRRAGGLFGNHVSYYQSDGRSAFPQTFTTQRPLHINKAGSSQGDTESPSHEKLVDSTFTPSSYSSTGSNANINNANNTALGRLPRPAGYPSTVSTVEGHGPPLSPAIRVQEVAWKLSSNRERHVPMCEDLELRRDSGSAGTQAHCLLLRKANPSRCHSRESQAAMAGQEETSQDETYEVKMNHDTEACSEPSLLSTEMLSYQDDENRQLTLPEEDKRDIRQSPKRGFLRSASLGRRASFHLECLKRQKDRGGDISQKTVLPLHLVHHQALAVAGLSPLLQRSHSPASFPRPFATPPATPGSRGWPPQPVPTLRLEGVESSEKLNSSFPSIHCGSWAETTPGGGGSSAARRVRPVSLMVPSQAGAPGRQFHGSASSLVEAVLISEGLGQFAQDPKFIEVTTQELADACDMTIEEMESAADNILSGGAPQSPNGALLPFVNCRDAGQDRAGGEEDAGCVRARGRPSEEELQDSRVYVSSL
T1 sequence (Q08289 whole entry partner): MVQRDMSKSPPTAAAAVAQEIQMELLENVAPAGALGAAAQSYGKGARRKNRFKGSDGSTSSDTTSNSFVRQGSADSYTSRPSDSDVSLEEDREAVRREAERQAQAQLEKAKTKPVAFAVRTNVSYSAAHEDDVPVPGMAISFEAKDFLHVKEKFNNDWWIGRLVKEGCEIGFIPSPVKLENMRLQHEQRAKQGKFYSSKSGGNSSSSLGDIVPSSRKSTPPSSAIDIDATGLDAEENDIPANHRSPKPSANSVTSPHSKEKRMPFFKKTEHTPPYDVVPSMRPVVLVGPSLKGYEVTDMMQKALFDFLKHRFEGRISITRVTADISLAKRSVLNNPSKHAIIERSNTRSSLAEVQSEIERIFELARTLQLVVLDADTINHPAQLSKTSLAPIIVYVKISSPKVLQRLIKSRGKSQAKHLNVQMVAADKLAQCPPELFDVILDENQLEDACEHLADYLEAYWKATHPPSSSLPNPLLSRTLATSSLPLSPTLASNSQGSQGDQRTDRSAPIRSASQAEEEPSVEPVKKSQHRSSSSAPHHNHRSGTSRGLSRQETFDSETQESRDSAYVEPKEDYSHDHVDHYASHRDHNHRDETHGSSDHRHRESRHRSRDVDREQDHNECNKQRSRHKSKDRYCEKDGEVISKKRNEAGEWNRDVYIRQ
T1 sequence (P54289 25-956 partner limits assumed): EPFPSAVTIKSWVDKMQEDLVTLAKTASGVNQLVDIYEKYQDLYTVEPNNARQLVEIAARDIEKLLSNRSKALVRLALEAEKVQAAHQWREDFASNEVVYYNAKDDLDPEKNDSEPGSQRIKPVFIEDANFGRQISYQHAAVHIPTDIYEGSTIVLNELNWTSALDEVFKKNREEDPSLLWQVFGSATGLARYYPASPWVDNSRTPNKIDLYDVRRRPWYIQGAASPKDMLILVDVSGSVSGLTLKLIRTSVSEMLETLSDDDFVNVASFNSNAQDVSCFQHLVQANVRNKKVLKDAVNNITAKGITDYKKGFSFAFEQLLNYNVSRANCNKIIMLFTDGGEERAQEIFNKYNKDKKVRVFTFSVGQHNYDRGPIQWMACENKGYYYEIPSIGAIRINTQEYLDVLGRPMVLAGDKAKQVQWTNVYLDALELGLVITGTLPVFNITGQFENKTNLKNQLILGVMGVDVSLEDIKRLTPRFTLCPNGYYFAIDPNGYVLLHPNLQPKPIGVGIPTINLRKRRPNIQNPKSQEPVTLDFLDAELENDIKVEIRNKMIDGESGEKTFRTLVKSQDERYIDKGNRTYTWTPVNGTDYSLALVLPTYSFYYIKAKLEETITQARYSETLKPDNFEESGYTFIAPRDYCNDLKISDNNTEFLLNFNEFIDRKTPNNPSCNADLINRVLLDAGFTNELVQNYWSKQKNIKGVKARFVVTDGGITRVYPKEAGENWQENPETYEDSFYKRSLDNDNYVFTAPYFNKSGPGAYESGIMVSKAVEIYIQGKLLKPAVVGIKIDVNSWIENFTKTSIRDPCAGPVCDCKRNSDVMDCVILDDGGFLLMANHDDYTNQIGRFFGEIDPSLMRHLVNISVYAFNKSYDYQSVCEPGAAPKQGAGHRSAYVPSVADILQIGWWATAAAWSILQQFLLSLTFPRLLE
T1 sequence (P54289 957-1103 partner limits assumed): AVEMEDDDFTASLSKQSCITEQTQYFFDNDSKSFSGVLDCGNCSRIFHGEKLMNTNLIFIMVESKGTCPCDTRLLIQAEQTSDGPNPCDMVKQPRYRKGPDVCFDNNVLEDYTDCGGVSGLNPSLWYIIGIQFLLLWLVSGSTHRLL
Method: [drawing 92] i.e. 4-[5-[3-Chloro-5-(trifluoromethoxy) phenyl]-1-(pyridin-3-yl)-1H-pyrazol-3-yl]-5,6-dihydro-7H-pyrrolo[3,4-d]pyrimidin-7-one, was tested for its effects on human Nav1.5, Cav1.2, Kv1.5, and HCN4 currents recorded from stably transfected CHO cells. The effect of four concentrations of this compound on these currents was investigated.
The whole-cell patch-clamp technique was used to investigate the effect of Compound A on the currents of Nav1.5, Kv1.5, Cav1.2 and HCN4 channels, expressed in CHO cells (ATCC, CCL-61). Compound A was tested at concentrations of 200 nM, 600 nM, 2000 nM and 6000 nM. […]
The 35 mm culture dishes upon which cells were seeded at a density allowing single cells to be recorded were placed on the dish holder of the microscope and continuously perfused (at approximately 1 mL/min) with the bath solution described in section 4.7. […]
As soon as a stable seal could be established outward tail currents were measured upon pulses described in the Table below: […]
Values in Ampere (A) of the peak amplitudes of outward tail currents were generated for each voltage step. […] The recorded current amplitudes at the steady state level of current inhibition were compared to those from control conditions measured in the pre-treatment phase of the same cell. The amount of current block was calculated as percentage of control. […]

[1] = Stability of compound A in solution; assay type: physicochemical
Method: The compound stock solutions were stored at 19°C to 30°C (room temperature). Test solutions were prepared freshly every day. Test solutions were prepared shortly before experimentation.
The Compound A stock solutions were prepared freshly every day of experimentation. Application of Compound A to the CHO cells was completed within one day. During this period, there was no observation indicating any instability of Compound A solved in vehicle. The effects observed on Nav1.5, Kv1.5, Cav1.2 and HCN4 channels of the Compound A dose formulations analyzed remained stable over several hours at room temperature.

Beagle dogs = experiment: 4-week beagle dog experiment, non-invasive telemetry (ECG, heart rate, blood pressure); assay type: in vivo
Method: [drawing 93] i.e. 4-[5-[3-Chloro-5-(trifluoromethoxy)phenyl]-1-(pyridin-3-yl)-1H-pyrazol-3-yl]-5,6-dihydro-7H-pyrrolo[3,4-d]pyrimidin-7-one, was administered in a 4-week beagle dog experiment with integrated non-invasive telemetric electrocardiography (ECG) measurements for determining its cardiovascular effects; specifically its effects on the heart rate.
32 Beagle dogs (16 males and 16 females) with parameters in the normal range were tested for cardiovascular effects of Compound A administration and divided into the study groups indicated below.
The test compound A-formulation of the appropriate concentration was administered by oral administration at a constant administration volume/kg b.w.
• Groups 1 and 4: Twice daily at an 8-hour interval for 28 consecutive days. • Groups 2 to 3: Once daily for 28 consecutive days.
Telemetry parameters were monitored at the following times: • Predose and in test week 4: All 32 animals included in this study. • At the end of the recovery period in test week 8: All 8 recovery animals.
Parameters were monitored telemetrically with the EMKA Technologies System continuously starting approximately 24 hours prior to the first treatment (baseline; pre-dose values) and for approximately 24 hours in test week 4 and at the end of the recovery period in test week 8. The dogs were habituated and trained for wearing the jackets equipped with the telemetry transmitter and air-filled cuff placed on their tail.
The following telemetry parameters were determined: • Peripheral arterial blood pressure in the tail (blood flow occlusion using an air filled cuff) • Heart rate • Electrocardiography (QRS, QT, PQ, RR) • Respiration (respiratory inductive plethysmography; belts were placed around the thorax and abdomen) • Skin temperature • Physical activity.
The report includes the data recorded at the following intervals: • Pre-dose: Every 4 hours after start of recording (7 (Baseline; approx. 24 hours) tracings per animal) • Test week 4: Approx. 0, 1, 2, 6, and 24 hours after (Start of treatment to 24 hours post the 1 st administration of the day treatment relating to first dosing of the day) • At the end of the recovery period in Every 4 hours after start of recording (7 test week 8: tracings per animal)
The electrocardiogram was visually assessed for any abnormalities of the electrical complexes (i.e. arrhythmias, interval prolongations). In addition, the following parameters were evaluated:
Furthermore, the QTc-values were calculated according to the following Bazett-formula: QTc = (QT [sec])/(sqrt((R−R distance[sec]))) [formula]

[2] = 3, 10 or 2 x 50 mg/kg b.w./day oral, test week 4

SMILES: O=C1NCc2c1ncnc2-c1cc(-c2cc(Cl)cc(OC(F)(F)F)c2)n(-c2cccnc2)n1 [Compound A, 4-[5-[3-Chloro-5-(trifluoromethoxy)phenyl]-1-(pyridin-3-yl)-1H-pyrazol-3-yl]-5,6-dihydro-7H-pyrrolo[3,4-d]pyrimidin-7-one]
- interaction with ion channels of Cav (Cav1.2): do not interact with other ion channels of Nav, Kav, and Cav substantially
- stability in aqueous and physiological fluids and organic solvents [1]: stable
- stability of dose formulations in bath solution ([1]; several hours at room temperature): no observations indicating any instability
- start of telemetric changes after last administration (Beagle dogs; 1st evaluated telemetric time-point, test week 4): ≤ 5 min
- effect on QTc interval (Beagle dogs; 3, 10 or 2 x 50 mg/kg b.w./day oral, 4 weeks): no adverse effects on QTc-interval; also recorded: no effect on QTc; also recorded: No influence
- prolonged QT interval (Beagle dogs; [2]): ≤ 50%
- prolonged RR interval (Beagle dogs; [2]): ≤ 140%
- decreased heart rate (Beagle dogs; 3, 10 or 2 x 50 mg/kg b.w./day oral, test week 4, compared to control group): ≤ 50%
- severe bradycardia or atrial fibrillation (Beagle dogs; beagle dog study): no signs of too much slowing of the heart rate (severe bradycardia) nor atrial fibrillation
- telemetric changes lasting until, after administration (Beagle dogs; end of telemetric measurement, test week 4): 24 h
- influence on systolic and diastolic blood pressures (Beagle dogs; oral, 4 weeks): No influence
- recovery of telemetric changes after 4-week treatment-free recovery period (Beagle dogs; week 8, high dose group 2 x 50 mg/kg b.w./day): full recovery; also recorded: completely subsided
